The record followed here is patent US10550127B1, “Indanylaminoazadihydrobenzofuranylacetic acids, pharmaceutical compositions for the treatment of diabetes” (Boehringer Ingelheim International GmbH, priority 2017, dated 2020).

Structures are written as SMILES.

The target of data set [1] is human GPR40 receptor (Homo sapiens (Human), UniProt O14842). In words: IP1 accumulation measurements using the IPOne assay system. The note with it: 1321N1 cells stably expressing human GPR40, 1 h stimulation. It counts as cell-based. The method, then:
IP1 accumulation measurements using the IPOne assay system—1321N1 cells stably expressing human GPR40 receptor (Euroscreen, Belgium) are seeded 24 h before the assay in white 384-well plates in culture medium containing 10% FCS, 1% Na-Pyruvate and 400 μg/mL G418. IP1 is assayed according to the manufacturer's description (Cisbio Bioassays, France). In brief, the assay is started by substitution of the culture medium by stimulation buffer (Hepes 10 mM, CaCl2) 1 mM, MgCl2 0.5 mM, KCl 4.2 mM, NaCl 146 mM, glucose 5.5 mM and LiCl 50 mM, pH 7.4). Cells are stimulated for 1 h at 37° C., 5% CO2 by addition of the compounds that are diluted in stimulation buffer containing LiCl. Assays are stopped by adding HTRF-conjugates (IP1-d2 and Anti-IP1 cryptate Tb) and lysis buffer, provided by the manufacturer. After an incubation time of 1 h at room temperature plates are measured using an EnVision™, Perkin Elmer. The obtained fluorescence ratios at 665/615 […] are then used to calculate the pEC50 values using Assay Explorer 3.3 Software (Accelrys, Inc.) by interpolation using an IP1 reference curve and subsequent sigmoidal curve fitting allowing for a variable hill slope.

Data set [2] can be described thus: Aqueous solubility. Format: physicochemical. As to conditions: aqueous buffer, kinetic from dmso stock, buffer pH 2.2, 24 h shaking, 2.5% DMSO. On the procedure:
The aqueous solubility of the compounds of the invention is determined by comparing the amount dissolved in buffer to the amount in an acetonitrile/water (1/1) solution. Starting from a 10 mM DMSO stock solution aliquots are diluted with acetonitrile/water (1/1) or buffer, respectively. After 24 h of shaking, the solutions are filtrated and analyzed by LC-UV. The amount dissolved in buffer is compared to the amount in the acetonitrile solution.
Solubility is usually being measured from 0.001 to 0.125 mg/mL at a DMSO concentration of 2.5%. If more than 90% of the compound is dissolved in buffer, the value is marked with “>”.

The target in data set [3] is cytochrome P450 2C8-isoenzyme (Homo sapiens (Human), UniProt P10632). In words: Inhibition of CYP-2C8 (amodiaquine deethylation, human liver microsomes). It counts as in vitro ADME. As to conditions: amodiaquine 1 μM, 37° C. The method, then:
All assays are carried out on a robotic system in 96 well plates. The final incubation volume contains TRIS buffer (0.1 M), MgCl2 (5 mM), human liver microsomes (0.05 mg/mL), amodiaquine (1 μM) and the test compound at five different concentrations or no compound (high control) in duplicate (e.g. highest concentration 10-50 μM with subsequent serial 1:4 dilutions). Following a short preincubation period, reactions are started with the cofactor (NADPH, 1 mM) and stopped by cooling the incubation down to 8° C. and subsequently by addition of one volume of acetonitrile. An internal standard solution—the stable isotope d5-desethylamodiaquine—is added after quenching of incubations. Peak area analyte (=metabolite formed) and internal standard is determined by LC-MS/MS. The resulting peak area ratio analyte to internal standard in these incubations is compared to a control activity containing no test compound. Within each of the assay runs, the IC50 of a positive control inhibitor (Montelukast) is determined. Experimental IC50 values are calculated by least square regression according to the following equation: % control activity=(100% control activity/(1+(I/IC50)S))−B with I=inhibitor concentration; S=slope factor; B=background activity (lower plateau of the inhibition curve)
If the inhibition of the reaction is already >50% at the lowest concentration of the test compound, the IC50 is assigned “<lowest concentration tested” (usually <0.4 μM). If the inhibition of the reaction is still <50% at the highest concentration of the test compound, the IC50 is assigned “> highest concentration tested” (usually >50 μM).
Background: Liver microsomes are a subcellular fraction often used to study metabolism.

As usually defined, the EC50 is the concentration giving half of the maximal effect. Low values mean greater potency, high ones weaker potency. By solubility is commonly meant the dissolved amount per volume that the medium holds. A low value points to a poorly soluble substance. What is called IC50 is the midpoint of a concentration-inhibition curve. Lower therefore signals inhibition by little substance.

Chain of human GPR40 receptor (O14842 whole entry): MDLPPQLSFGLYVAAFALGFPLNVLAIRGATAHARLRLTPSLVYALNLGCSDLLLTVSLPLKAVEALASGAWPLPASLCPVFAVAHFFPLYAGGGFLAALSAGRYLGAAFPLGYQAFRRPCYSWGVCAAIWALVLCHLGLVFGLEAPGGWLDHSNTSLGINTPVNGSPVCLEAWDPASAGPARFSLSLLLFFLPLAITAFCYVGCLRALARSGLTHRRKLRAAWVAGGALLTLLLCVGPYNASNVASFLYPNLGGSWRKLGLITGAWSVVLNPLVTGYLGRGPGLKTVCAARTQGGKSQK
Chain of cytochrome P450 2C8-isoenzyme (P10632 whole entry): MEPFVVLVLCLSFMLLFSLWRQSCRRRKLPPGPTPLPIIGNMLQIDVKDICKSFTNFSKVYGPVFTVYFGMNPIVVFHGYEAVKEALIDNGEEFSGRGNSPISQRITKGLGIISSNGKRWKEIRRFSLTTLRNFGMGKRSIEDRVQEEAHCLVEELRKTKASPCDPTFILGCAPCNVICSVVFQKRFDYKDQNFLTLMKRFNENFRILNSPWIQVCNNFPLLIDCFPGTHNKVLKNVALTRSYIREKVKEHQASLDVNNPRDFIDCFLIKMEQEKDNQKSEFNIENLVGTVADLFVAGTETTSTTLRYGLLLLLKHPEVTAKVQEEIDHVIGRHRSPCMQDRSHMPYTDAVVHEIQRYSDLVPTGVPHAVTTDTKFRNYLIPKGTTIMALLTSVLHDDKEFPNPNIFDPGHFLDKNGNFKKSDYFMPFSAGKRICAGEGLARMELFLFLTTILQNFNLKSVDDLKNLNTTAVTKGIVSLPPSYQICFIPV

On to `Cc1cc(OCCC(C)(C)O)cc(C)c1-c1ccc(F)c2c1CC[C@H]2Nc1cc2c(cn1)[C@@H](CC(=O)O)CO2` [Example 2, ((R)-6-{(R)-7-Fluoro-4-[4-(3-hydroxy-3-methyl-butoxy)-2,6-dimethyl-phenyl]-indan-1-ylamino}-2,3-dihydro-furo[3,2-c]pyridin-3-yl)-acetic Acid], for which the EC50 in data set [1] is 764 nM. In data set [1], `Cc1cc(OCCC(C)(C)O)cc(C)c1-c1cccc2c1CC[C@H]2Nc1cc2c(cn1)[C@H](CC(=O)O)CO2` [Example 3, ((S)-6-{(R)-4-[4-(3-Hydroxy-3-methyl-butoxy)-2,6-dimethyl-phenyl]-indan-1-ylamino}-2,3-dihydro-furo[3,2-c]pyridin-3-yl)-acetic Acid] displayed an EC50 of 21 nM. Same read-out and setting: next, `Cc1cc(OCCC(C)(C)O)cc(C)c1-c1cccc2c1CC[C@H]2Nc1cc2c(cn1)[C@@H](CC(=O)O)CO2` [Example 4, ((R)-6-{(R)-4-[4-(3-Hydroxy-3-methyl-butoxy)-2,6-dimethyl-phenyl]-indan-1-ylamino}-2,3-dihydro-furo[3,2-c]pyridin-3-yl)-acetic acid]: 751 nM; `Cc1cc(-c2nnn(C)n2)cc(C)c1-c1ccc(F)c2c1CC[C@H]2Nc1cc2c(cn1)[C@@H](CC(=O)O)CO2` [Example 6, ((R)-6-{(R)-4-[2,6-Dimethyl-4-(2-methyl-2H-tetrazol-5-yl)-phenyl]-7-fluoro-indan-1-ylamino}-2,3-dihydro-furo[3,2-c]pyridin-3-yl)-acetic Acid]: 382 nM. Same read-out and setting: next, `Cc1cc(-c2nnn(C)n2)cc(C)c1-c1cccc2c1CC[C@H]2Nc1cc2c(cn1)[C@H](CC(=O)O)CO2` [Example 7, ((S)-6-{(R)-4-[2,6-Dimethyl-4-(2-methyl-2H-tetrazol-5-yl)-phenyl]-indan-1-ylamino}-2,3-dihydro-furo[3,2-c]pyridin-3-yl)-acetic Acid]: 7 nM; `Cc1cc(-c2nnn(C)n2)cc(C)c1-c1cccc2c1CC[C@H]2Nc1cc2c(cn1)[C@@H](CC(=O)O)CO2` [Example 8, ((R)-6-{(R)-4-[2,6-Dimethyl-4-(2-methyl-2H-tetrazol-5-yl)-phenyl]-indan-1-ylamino}-2,3-dihydro-furo[3,2-c]pyridin-3-yl)-acetic acid]: 378 nM; `Cc1cc(O[C@@H]2CCOC2)cc(C)c1-c1ccc(F)c2c1CC[C@H]2Nc1cc2c(cn1)[C@H](CC(=O)O)CO2` [Example 9, [(S)-6-((R)-4-{2,6-Dimethyl-4-[(R)-(tetrahydro-furan-3-yl)oxy]-phenyl}-7-fluoro-indan-1-ylamino)-2,3-dihydro-furo[3,2-c]pyridin-3-yl]-acetic Acid]: 57 nM. On the same count and under the same terms, as for `Cc1cc(OC2CCOCC2)cc(C)c1-c1ccc(F)c2c1CC[C@H]2Nc1cc2c(cn1)[C@H](CC(=O)O)CO2` [Example 10, ((S)-6-{(R)-4-[2,6-Dimethyl-4-(tetrahydro-pyran-4-yloxy)-phenyl]-7-fluoro-indan-1-ylamino}-2,3-dihydro-furo[3,2-c]pyridin-3-yl)-acetic Acid], the figure is 56 nM; as for `Cc1cc(OCC2(C)COC2)cc(C)c1-c1ccc(F)c2c1CC[C@H]2Nc1cc2c(cn1)[C@H](CC(=O)O)CO2` [Example 11, ((S)-6-{(R)-4-[2,6-Dimethyl-4-(3-methyl-oxetan-3-ylmethoxy)-phenyl]-7-fluoro-indan-1-ylamino}-2,3-dihydro-furo[3,2-c]pyridin-3-yl)-acetic Acid], 37 nM; as for `Cc1cc(O[C@H]2CCOC2)cc(C)c1-c1ccc(F)c2c1CC[C@H]2Nc1cc2c(cn1)[C@H](CC(=O)O)CO2` [Example 12, [(S)-6-((R)-4-{2,6-Dimethyl-4-[(S)-(tetrahydro-furan-3-yl)oxy]-phenyl}-7-fluoro-indan-1-ylamino)-2,3-dihydro-furo[3,2-c]pyridin-3-yl]-acetic Acid], 73 nM.

For `Cc1cc(OCC(C)(C)O)cc(C)c1-c1ccc(F)c2c1CC[C@H]2Nc1cc2c(cn1)[C@H](CC(=O)O)CO2` [Example 13, ((S)-6-{(R)-7-Fluoro-4-[4-(2-hydroxo-2-methyl-propoxy)-2,6-dimethyl-phenyl]-indan-1-ylamino}-2,3-dihydro-furo[3,2-c]pyridin-3-yl)-acetic Acid], in data set [1], it took 35 nM to reach a half-maximal effect (EC50). The same measure, in the same setting: next, `Cc1cc(OCC2CCOC2)cc(C)c1-c1ccc(F)c2c1CC[C@H]2Nc1cc2c(cn1)[C@H](CC(=O)O)CO2` (stereo partly drawn) [Example 14, ((S)-6-{(R)-4-[2,6-Dimethyl-4-(tetrahydro-furan-3-ylmethoxy)-phenyl]-7-fluoro-indan-1-ylamino}-2,3-dihydro-furo[3,2-c]pyridin-3-yl)-acetic Acid]: 27 nM. In data set [1], `Cc1cc(-c2nnn(CC(C)(C)O)n2)cc(C)c1-c1ccc(F)c2c1CC[C@H]2Nc1cc2c(cn1)[C@H](CC(=O)O)CO2` [Example 15, [(S)-6-((R)-7-Fluoro-4-{4-[2-(2-hydroxo-2-methyl-propyl)-2H-tetrazol-5-yl]-2,6-dimethyl-phenyl}-indan-1-ylamino)-2,3-dihydro-furo[3,2-c]pyridin-3-yl]-acetic acid] yielded a concentration giving a half-maximal response (EC50) of 9 nM. Turning to `Cc1cc(OCCC(C)(C)O)cc(C)c1-c1ccc(F)c2c1CC[C@H]2Oc1ccc2c(c1)OC[C@H]2CC(=O)O` [Example 16 in WO 2013/144098, reference compound], the solubility at 24 h in data set [2] is less than 1 µg/mL. This molecule returned a concentration for half-maximal inhibition (IC50) in data set [3] of 5 µM.

Consider `Cc1cc(-c2ccn(C)c(=O)n2)cc(C)c1-c1ccc(F)c2c1CC[C@H]2Nc1cc2c(cn1)[C@H](CC(=O)O)CO2` [Example 16, ((S)-6-{(R)-4-[2,6-Dimethyl-4-(1-methyl-2-oxo-1,2-dihydro-pyrimidin-4-yl)-phenyl]-7-fluoro-indan-1-ylamino}-2,3-dihydro-furo[3,2-c]pyridin-3-yl)-acetic acid], for which, in data set [1], the EC50 was determined as 27 nM. Still for that read-out and setting: next, `Cc1cc(-c2ccn(C)c(=O)c2)cc(C)c1-c1ccc(F)c2c1CC[C@H]2Nc1cc2c(cn1)[C@H](CC(=O)O)CO2` [Example 17, ((S)-6-{(R)-4-[2,6-Dimethyl-4-(1-methyl-2-oxo-1,2-dihydro-pyridin-4-yl)-phenyl]-7-fluoro-indan-1-ylamino}-2,3-dihydro-furo[3,2-c]pyridin-3-yl)-acetic Acid]: 12 nM; `Cc1cc(-c2cc(=O)n(C)cn2)cc(C)c1-c1ccc(F)c2c1CC[C@H]2Nc1cc2c(cn1)[C@H](CC(=O)O)CO2` [Example 18, ((S)-6-{(R)-4-[2,6-Dimethyl-4-(1-methyl-6-oxo-1,6-dihydro-pyrimidin-4-yl)-phenyl]-7-fluoro-indan-1-ylamino}-2,3-dihydro-furo[3,2-c]pyridin-3-yl)-acetic Acid]: 14 nM; `Cc1cc(-c2ccc(=O)n(C)c2)cc(C)c1-c1ccc(F)c2c1CC[C@H]2Nc1cc2c(cn1)[C@H](CC(=O)O)CO2` [Example 19, ((S)-6-{(R)-4-[2,6-Dimethyl-4-(1-methyl-6-oxo-1,6-dihydro-pyridin-3-yl)-phenyl]-7-fluoro-indan-1-ylamino}-2,3-dihydro-furo[3,2-c]pyridin-3-yl)-acetic Acid]: 27 nM.

For `Cc1cc(-c2cnccn2)cc(C)c1-c1ccc(F)c2c1CC[C@H]2Nc1cc2c(cn1)[C@H](CC(=O)O)CO2` [Example 20, {(S)-6-[(R)-4-(2,6-Dimethyl-4-pyrazin-2-yl-phenyl)-7-fluoro-indan-1-ylamino]-2,3-dihydro-furo[3,2-c]pyridin-3-yl}-acetic acid], in data set [1], the midpoint of the response, the EC50, lay at 9 nM. `Cc1cc(-c2nnn(C)n2)cc(C)c1-c1ccc(F)c2c1CC[C@H]2Oc1ccc2c(c1)OC[C@H]2CC(=O)O` [Example 138 in WO 2013/144098, reference compound] came in with a solubility at 24 h in data set [2] of less than 1 µg/mL.
